# Patent US8192962B2, “Processes for detecting toxic substances” (Daikin Industries, Ltd., priority 2001, dated 2012)
# System: Mitochondria-located protein genes
# Experiment: DNA chip mRNA expression in yeast, mitochondria-located protein genes (Table 2)
# Type: cell-based, Saccharomyces cerevisiae S288C
# Conditions: cells incubated two hours with the chemical substance
# Outline: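 S. cerevisiae S288C grown at 25° C. in YPD to log phase, then exposed 2 h to a toxicant at a growth-inhibiting, non-lethal concentration; untreated cells as control. Poly(A) mRNA reverse-transcribed with Cy3-dUTP or Cy5-dUTP, hybridized >12 h at 65° C. to whole-genome yeast DNA chip; value = fluorescence ratio treated/untreated.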
compound,measurement,setting,value
"O=[N+]([O-])c1cc[n+]([O-])c2ccccc12 [(5), 4-nitroquinolin-N-oxide]",The level of expressed mRNA in the presence of chemical substance/The level of expressed mRNA in the absence of chemical substance,yeast gene YJR121W,0.8
same,The level of expressed mRNA in the presence of chemical substance/The level of expressed mRNA in the absence of chemical substance,yeast gene YKL003C,1.0
same,The level of expressed mRNA in the presence of chemical substance/The level of expressed mRNA in the absence of chemical substance,yeast gene YKL016C,1.5
same,The level of expressed mRNA in the presence of chemical substance/The level of expressed mRNA in the absence of chemical substance,yeast gene YKL141W,1.5
same,The level of expressed mRNA in the presence of chemical substance/The level of expressed mRNA in the absence of chemical substance,yeast gene YKL142W,0.7
same,The level of expressed mRNA in the presence of chemical substance/The level of expressed mRNA in the absence of chemical substance,yeast gene YKL148C,0.8
same,The level of expressed mRNA in the presence of chemical substance/The level of expressed mRNA in the absence of chemical substance,yeast gene YKL170W,1.3
same,The level of expressed mRNA in the presence of chemical substance/The level of expressed mRNA in the absence of chemical substance,yeast gene YKL194C,1.8
same,The level of expressed mRNA in the presence of chemical substance/The level of expressed mRNA in the absence of chemical substance,yeast gene YKR066C,1.0
same,The level of expressed mRNA in the presence of chemical substance/The level of expressed mRNA in the absence of chemical substance,yeast gene YLL041C,1.6
same,The level of expressed mRNA in the presence of chemical substance/The level of expressed mRNA in the absence of chemical substance,yeast gene YLR038C,1.8
same,The level of expressed mRNA in the presence of chemical substance/The level of expressed mRNA in the absence of chemical substance,yeast gene YLR259C,1.1
same,The level of expressed mRNA in the presence of chemical substance/The level of expressed mRNA in the absence of chemical substance,yeast gene YLR295C,2.2
same,The level of expressed mRNA in the presence of chemical substance/The level of expressed mRNA in the absence of chemical substance,yeast gene YLR304C,0.6
same,The level of expressed mRNA in the presence of chemical substance/The level of expressed mRNA in the absence of chemical substance,yeast gene YLR348C,0.9
same,The level of expressed mRNA in the presence of chemical substance/The level of expressed mRNA in the absence of chemical substance,yeast gene YLR395C,0.7
same,The level of expressed mRNA in the presence of chemical substance/The level of expressed mRNA in the absence of chemical substance,yeast gene YML054C,1.3
same,The level of expressed mRNA in the presence of chemical substance/The level of expressed mRNA in the absence of chemical substance,yeast gene YML120C,0.6
same,The level of expressed mRNA in the presence of chemical substance/The level of expressed mRNA in the absence of chemical substance,yeast gene YML129C,1.7
same,The level of expressed mRNA in the presence of chemical substance/The level of expressed mRNA in the absence of chemical substance,yeast gene YMR023C,1.7
same,The level of expressed mRNA in the presence of chemical substance/The level of expressed mRNA in the absence of chemical substance,yeast gene YMR035W,0.8
same,The level of expressed mRNA in the presence of chemical substance/The level of expressed mRNA in the absence of chemical substance,yeast gene YMR083W,1.5
same,The level of expressed mRNA in the presence of chemical substance/The level of expressed mRNA in the absence of chemical substance,yeast gene YMR089C,0.8
same,The level of expressed mRNA in the presence of chemical substance/The level of expressed mRNA in the absence of chemical substance,yeast gene YMR152W,0.8
same,The level of expressed mRNA in the presence of chemical substance/The level of expressed mRNA in the absence of chemical substance,yeast gene YMR193W,2.2
same,The level of expressed mRNA in the presence of chemical substance/The level of expressed mRNA in the absence of chemical substance,yeast gene YMR203W,0.6
same,The level of expressed mRNA in the presence of chemical substance/The level of expressed mRNA in the absence of chemical substance,yeast gene YMR267W,1.0
same,The level of expressed mRNA in the presence of chemical substance/The level of expressed mRNA in the absence of chemical substance,yeast gene YNL055C,0.9
same,The level of expressed mRNA in the presence of chemical substance/The level of expressed mRNA in the absence of chemical substance,yeast gene YNL071W,0.6
same,The level of expressed mRNA in the presence of chemical substance/The level of expressed mRNA in the absence of chemical substance,yeast gene YNL073W,0.6
same,The level of expressed mRNA in the presence of chemical substance/The level of expressed mRNA in the absence of chemical substance,yeast gene YNL104C,0.8
same,The level of expressed mRNA in the presence of chemical substance/The level of expressed mRNA in the absence of chemical substance,yeast gene YNL256W,1.0
same,The level of expressed mRNA in the presence of chemical substance/The level of expressed mRNA in the absence of chemical substance,yeast gene YOL096C,1.2
same,The level of expressed mRNA in the presence of chemical substance/The level of expressed mRNA in the absence of chemical substance,yeast gene YOR020C,1.5
same,The level of expressed mRNA in the presence of chemical substance/The level of expressed mRNA in the absence of chemical substance,yeast gene YOR037W,1.5
same,The level of expressed mRNA in the presence of chemical substance/The level of expressed mRNA in the absence of chemical substance,yeast gene YOR100C,1.0
same,The level of expressed mRNA in the presence of chemical substance/The level of expressed mRNA in the absence of chemical substance,yeast gene YOR130C,1.8
same,The level of expressed mRNA in the presence of chemical substance/The level of expressed mRNA in the absence of chemical substance,yeast gene YOR142W,1.4
same,The level of expressed mRNA in the presence of chemical substance/The level of expressed mRNA in the absence of chemical substance,yeast gene YOR150W,0.8
same,The level of expressed mRNA in the presence of chemical substance/The level of expressed mRNA in the absence of chemical substance,yeast gene YOR176W,1.0
same,The level of expressed mRNA in the presence of chemical substance/The level of expressed mRNA in the absence of chemical substance,yeast gene YOR187W,0.6
same,The level of expressed mRNA in the presence of chemical substance/The level of expressed mRNA in the absence of chemical substance,yeast gene YOR316C,1.0
same,The level of expressed mRNA in the presence of chemical substance/The level of expressed mRNA in the absence of chemical substance,yeast gene YPL040C,0.8
same,The level of expressed mRNA in the presence of chemical substance/The level of expressed mRNA in the absence of chemical substance,yeast gene YPL134C,1.4
same,The level of expressed mRNA in the presence of chemical substance/The level of expressed mRNA in the absence of chemical substance,yeast gene YPL135W,1.6
same,The level of expressed mRNA in the presence of chemical substance/The level of expressed mRNA in the absence of chemical substance,yeast gene YPL215W,0.8
same,The level of expressed mRNA in the presence of chemical substance/The level of expressed mRNA in the absence of chemical substance,yeast gene YPL262W,0.6
same,The level of expressed mRNA in the presence of chemical substance/The level of expressed mRNA in the absence of chemical substance,yeast gene YPR024W,1.3
same,The level of expressed mRNA in the presence of chemical substance/The level of expressed mRNA in the absence of chemical substance,yeast gene YPR037C,0.8
same,The level of expressed mRNA in the presence of chemical substance/The level of expressed mRNA in the absence of chemical substance,yeast gene YPR047W,0.9
same,The level of expressed mRNA in the presence of chemical substance/The level of expressed mRNA in the absence of chemical substance,yeast gene YPR134W,1.5
